Experimental data taken from ChEMBL document CHEMBL1201862, “PubChem BioAssay data set” (2004).
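In this assay, cells in 96-well plates receive the compound at five concentrations for 48 hours. Endpoints are linearly interpolated between the surrounding concentrations. GI50 is the concentration that inhibits growth by half.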 Active and inactive are the calls of the source. Rule as the data show it: active = GI50 up to about 1.1 µM and inactive = higher.

How the values were obtained:
Assay in all cases: NCI tumour cell line growth inhibition, 48 h
[1] = tested on: HT-29
[2] = tested on: SK-OV-3
[3] = tested on: SN12C
[4] = tested on: COLO 205
[5] = tested on: PC-3
[6] = tested on: HCT-15
[7] = tested on: NCI-H226
[8] = tested on: NCI-H460
[9] = tested on: OVCAR-3
[10] = tested on: UACC-62
[11] = tested on: SK-MEL-5
[12] = tested on: SR
[13] = tested on: A549
[14] = tested on: HL-60
[15] = tested on: SK-MEL-28
[16] = tested on: NCI/ADR-RES
[17] = tested on: OVCAR-5
[18] = tested on: U-251
[19] = tested on: CCRF-CEM
[20] = tested on: CAKI-1

SMILES | GI50 [1] | GI50 [2] | GI50 [3] | GI50 [4] | GI50 [5] | GI50 [6] | GI50 [7] | GI50 [8] | GI50 [9] | GI50 [10] | GI50 [11] | GI50 [12] | GI50 [13] | GI50 [14] | GI50 [15] | GI50 [16] | GI50 [17] | GI50 [18] | GI50 [19] | GI50 [20]
Cc1c2oc3c(C)cc(F)c(C(=O)NC4C(=O)NC(C(C)C)C(=O)N5CCCC5C(=O)N(C)CC(=O)N(C)C(C(C)C)C(=O)OC4C)c3nc-2c(C(=O)NC2C(=O)NC(C(C)C)C(=O)N3CCCC3C(=O)N(C)CC(=O)N(C)C(C(C)C)C(=O)OC2C)c(N)c1=O (stereo not given) | 0.00586 µM (active) | 0.16 µM (active) | 0.0303 µM (active) | 0.0267 µM (active) | 0.0179 µM (active) | 0.0805 µM | 0.0234 µM (active) | 0.00179 µM (active) | 0.0336 µM (active) | 0.0617 µM (active) | 0.0142 µM (active) | < 0.001 µM (active) | 0.0148 µM (active) | 0.00131 µM (active) | 0.0263 µM (active) | 4.65 µM (inactive) | 0.214 µM (active) | 0.00588 µM (active) | < 0.001 µM (active) | 2.45 µM (inactive)
COc1ccc2c(c1O)[C@@]13CCCC=C1[C@@H](C2)N(C)CC3 | 32.1 µM (inactive) | > 100 µM (inactive) | > 100 µM (inactive) | 97.1 µM (inactive) | 59.6 µM (inactive) | > 100 µM | 31.6 µM (inactive) | > 100 µM (inactive) | 50.7 µM (inactive) | > 100 µM (inactive) | 69.2 µM (inactive) | 25.6 µM (inactive) | > 100 µM (inactive) | 21.4 µM (inactive) | > 100 µM (inactive) | 33 µM (inactive) | > 100 µM (inactive) | > 100 µM (inactive) | 27.5 µM (inactive) | > 100 µM (inactive)
COc1ccc2c(c1C)C(=O)C(O)(CC=C(C)C)O2 (stereo not given) | > 100 µM (inactive) | > 100 µM (inactive) | > 100 µM (inactive) | > 100 µM (inactive) | 62.8 µM (inactive) | > 100 µM | > 100 µM (inactive) | > 100 µM (inactive) | > 100 µM (inactive) | > 100 µM (inactive) | > 100 µM (inactive) | > 100 µM (inactive) | > 100 µM (inactive) | > 100 µM (inactive) | > 100 µM (inactive) | > 100 µM (inactive) | > 100 µM (inactive) | > 100 µM (inactive) | > 100 µM (inactive) | > 100 µM (inactive)
O=C1Nc2ccccc2/C1=N/NC(=S)NCc1ccccn1 | 0.0462 µM (active) | 1.12 µM (inactive) | 1.27 µM (inactive) | < 0.01 µM (active) | 0.0508 µM (active) | 0.0326 µM | 0.604 µM (active) | 0.172 µM (active) | < 0.01 µM (active) | 0.341 µM (active) | 0.551 µM (active) | < 0.01 µM (active) | 0.466 µM (active) | < 0.01 µM (active) | 2.36 µM (inactive) | 0.418 µM (active) | 10.5 µM (inactive) | 0.0724 µM (active) | < 0.01 µM (active) | 0.0951 µM (active)
COc1ccc2c(c1OC(C)=O)C1=CC(=O)CCC13CCNC3C2 (stereo not given) | > 100 µM (inactive) | > 100 µM (inactive) | > 100 µM (inactive) | > 100 µM (inactive) | > 100 µM (inactive) | > 100 µM | > 100 µM (inactive) | > 100 µM (inactive) | > 100 µM (inactive) | > 100 µM (inactive) | > 100 µM (inactive) | > 100 µM (inactive) | > 100 µM (inactive) | > 100 µM (inactive) | > 100 µM (inactive) | > 100 µM (inactive) | > 100 µM (inactive) | > 100 µM (inactive) | > 100 µM (inactive) | > 100 µM (inactive)
